From the supplement of paper PMC11451515

Key:
Settings in all cases: 48 h
NOMO1 [1] = assay: AUC of viability dose-response curve (% viability x log10 dose units); higher = less sensitive
In short: (§1)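 Seeding of medium-adapted leukemia cells was at 500 or 1000 cells/well in 1536-well plates, followed by 48 h at 37°C with library compounds in DMSO at 11 threefold doses from 47 μM to 0.79 nM. CellTiter-Glo One luminescence was normalised per plate to DMSO and cell-free wells and fitted as a four-parameter log-logistic function of log10 dose. Area under the curve was integrated by trapezoidal rule, with curves exceeding full viability scaled and curves failing quality control removed.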

P12-Ichikawa [2] = assay: as above
In short: as §1

SEM cells [3] = assay: as above
In short: as §1

SEM cells [4] = assay: cell viability relative to DMSO control; higher = less cytotoxic
In short: (§2)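 Viability is a per-plate percentage relative to DMSO wells, with cell-free wells as background. CellTiter-Glo One luminescence was read after 48 h at 37°C on 1536-well plates (5 μl) of NOMO1 or SEM (500 cells/well) or P12-Ichikawa (1000 cells/well) leukemia cells. The cells had been adapted for at least four passages in each medium and pin-dosed with library compounds in DMSO from 47 μM to 0.79 nM in 11 threefold steps.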

NOMO1 [5] = assay: as above
In short: as §2

P12-Ichikawa [6] = assay: as above
In short: as §2

C=C1/C(=C\C=C2/CCC[C@]3(C)[C@@H]([C@H](C)/C=C/[C@H](C)C(C)C)CC[C@@H]23)C[C@@H](O)C[C@@H]1O
AUC of viability dose-response curve
Settings | NOMO1 [1] | P12-Ichikawa [2] | SEM cells [3]
HPLM + 10% dialyzed FBS | 398 | 399 | 446
RPMI 5 mM glucose + 10% FBS | 423 | 404 | 438
RPMI 5 mM glucose + 10% dialyzed FBS | 416 | 408 | 450

C[C@H]1[C@H](OC(=O)CCC(=O)O)O[C@@H]2O[C@@]3(C)CC[C@H]4[C@H](C)CC[C@@H]1[C@@]24OO3
AUC of viability dose-response curve
Settings | NOMO1 [1] | P12-Ichikawa [2] | SEM cells [3]
HPLM + 10% dialyzed FBS | 350 | 372 | 393
RPMI 5 mM glucose + 10% FBS | 342 | 360 | 371
RPMI 5 mM glucose + 10% dialyzed FBS | 335 | 351 | 378

CC(C)Nc1cc(-c2c[nH]c(C(=O)N[C@H](CO)c3cccc(Cl)c3)c2)c(Cl)cn1
SEM cells [4], HPLM + 10% dialyzed FBS
Settings | cell viability [%]
0.000781 µM | 105
0.00234 µM | 118
0.00702 µM | 125
0.0211 µM | 123
0.0632 µM | 141
0.19 µM | 133
0.569 µM | 144
1.71 µM | 120
5.12 µM | 98.7
15.4 µM | 94.1
46.1 µM | 11.3

AUC of viability dose-response curve
Settings | NOMO1 [1] | P12-Ichikawa [2] | SEM cells [3]
HPLM + 10% dialyzed FBS | 393 | 423 | 436
RPMI 5 mM glucose + 10% FBS | 383 | 396 | 422
RPMI 5 mM glucose + 10% dialyzed FBS | 371 | 394 | 400

Cc1ccc(CN2CCNCC2)cc1NC(=O)CNc1ccc(F)c(F)c1
AUC of viability dose-response curve
Settings | NOMO1 [1] | P12-Ichikawa [2] | SEM cells [3]
HPLM + 10% dialyzed FBS | 435 | 454 | 447
RPMI 5 mM glucose + 10% FBS | 459 | 457 | 464
RPMI 5 mM glucose + 10% dialyzed FBS | 444 | 445 | 431

CC(=O)NC(CS)C(=O)O (stereo not given)
cell viability [%]
Settings | NOMO1 [5] | P12-Ichikawa [6] | SEM cells [4]
HPLM + 10% dialyzed FBS, 0.000781 µM | 81.1 | 81.9 | 71.5
HPLM + 10% dialyzed FBS, 0.00234 µM | 93.2 | 82.9 | 71.7
HPLM + 10% dialyzed FBS, 0.00702 µM | 104 | 88.7 | 75.7
HPLM + 10% dialyzed FBS, 0.0211 µM | 82.7 | 88.4 | 63.5
HPLM + 10% dialyzed FBS, 0.0632 µM | 96.9 | 91.3 | 82.3
HPLM + 10% dialyzed FBS, 0.19 µM | 81.6 | 86.4 | 62.5
HPLM + 10% dialyzed FBS, 0.569 µM | 78.8 | 89.3 | 66.7
HPLM + 10% dialyzed FBS, 1.71 µM | 97 | 87.2 | 84.1
HPLM + 10% dialyzed FBS, 5.12 µM | 78.2 | 87.3 | 90
HPLM + 10% dialyzed FBS, 15.4 µM | 26.7 | 18.4 | 36.1
HPLM + 10% dialyzed FBS, 46.1 µM | 27.5 | 27.5 | 62.3
RPMI 5 mM glucose + 10% FBS, 0.000781 µM | 72.7 | 75.5 | 93.5
RPMI 5 mM glucose + 10% FBS, 0.00234 µM | 81.1 | 74.2 | 93.7
RPMI 5 mM glucose + 10% FBS, 0.00702 µM | 75.3 | 81.5 | 87.8
RPMI 5 mM glucose + 10% FBS, 0.0211 µM | 74.4 | 78.2 | 99.1
RPMI 5 mM glucose + 10% FBS, 0.0632 µM | 75.8 | 81.4 | 99.8
RPMI 5 mM glucose + 10% FBS, 0.19 µM | 75.2 | 69.5 | 90.8
RPMI 5 mM glucose + 10% FBS, 0.569 µM | 82.7 | 83.3 | 95.4
RPMI 5 mM glucose + 10% FBS, 1.71 µM | 79.5 | 80.4 | 116
RPMI 5 mM glucose + 10% FBS, 5.12 µM | 84.5 | 88.8 | 114
RPMI 5 mM glucose + 10% FBS, 15.4 µM | 30.5 | 28.6 | 27.7
RPMI 5 mM glucose + 10% FBS, 46.1 µM | 70.4 | 62.5 | 29.2
RPMI 5 mM glucose + 10% dialyzed FBS, 0.000781 µM | 81.1 | 80.4 | 76.7
RPMI 5 mM glucose + 10% dialyzed FBS, 0.00234 µM | 77.8 | 80.4 | 57.8
RPMI 5 mM glucose + 10% dialyzed FBS, 0.00702 µM | 86.7 | 76.4 | 86.2
RPMI 5 mM glucose + 10% dialyzed FBS, 0.0211 µM | 88.9 | 82.7 | 65.5
RPMI 5 mM glucose + 10% dialyzed FBS, 0.0632 µM | 88.1 | 89.7 | 88.4
RPMI 5 mM glucose + 10% dialyzed FBS, 0.19 µM | 75.8 | 79 | 64
RPMI 5 mM glucose + 10% dialyzed FBS, 0.569 µM | 85.6 | 84.4 | 83.6
RPMI 5 mM glucose + 10% dialyzed FBS, 1.71 µM | 80.1 | 88.8 | 78.7
RPMI 5 mM glucose + 10% dialyzed FBS, 5.12 µM | 90.7 | 77.2 | 108
RPMI 5 mM glucose + 10% dialyzed FBS, 15.4 µM | 27.8 | 27.8 | 30.9
RPMI 5 mM glucose + 10% dialyzed FBS, 46.1 µM | 75.9 | 45.6 | 54.9

AUC of viability dose-response curve
Settings | HPLM + 10% dialyzed FBS | RPMI 5 mM glucose + 10% FBS | RPMI 5 mM glucose + 10% dialyzed FBS
NOMO1 [1] | 376 | 352 | 377
P12-Ichikawa [2] | 369 | 354 | 359

CCC[C@H](N[C@@H](C)C(=O)N1[C@H](C(=O)O)C[C@@H]2CCCC[C@@H]21)C(=O)OCC
cell viability [%]
Settings | NOMO1 [5] | P12-Ichikawa [6] | SEM cells [4]
HPLM + 10% dialyzed FBS, 0.000781 µM | 115 | 110 | 114
HPLM + 10% dialyzed FBS, 0.00234 µM | 124 | 108 | 111
HPLM + 10% dialyzed FBS, 0.00702 µM | 119 | 109 | 104
HPLM + 10% dialyzed FBS, 0.0211 µM | 119 | 113 | 114
HPLM + 10% dialyzed FBS, 0.0632 µM | 105 | 104 | 120
HPLM + 10% dialyzed FBS, 0.19 µM | 102 | 115 | 115
HPLM + 10% dialyzed FBS, 0.569 µM | 115 | 112 | 118
HPLM + 10% dialyzed FBS, 1.71 µM | 89.4 | 109 | 112
HPLM + 10% dialyzed FBS, 5.12 µM | 36 | 93.2 | 106
HPLM + 10% dialyzed FBS, 15.4 µM | 54.1 | 88.1 | 111
HPLM + 10% dialyzed FBS, 46.1 µM | 43.9 | 84.7 | 105
RPMI 5 mM glucose + 10% FBS, 0.000781 µM | 97.4 | 106 | 107
RPMI 5 mM glucose + 10% FBS, 0.00234 µM | 101 | 103 | 101
RPMI 5 mM glucose + 10% FBS, 0.00702 µM | 115 | 121 | 107
RPMI 5 mM glucose + 10% FBS, 0.0211 µM | 109 | 112 | 110
RPMI 5 mM glucose + 10% FBS, 0.0632 µM | 111 | 117 | 105
RPMI 5 mM glucose + 10% FBS, 0.19 µM | 106 | 108 | 116
RPMI 5 mM glucose + 10% FBS, 0.569 µM | 105 | 106 | 104
RPMI 5 mM glucose + 10% FBS, 1.71 µM | 95.3 | 97.9 | 110
RPMI 5 mM glucose + 10% FBS, 5.12 µM | 86.7 | 77.1 | 105
RPMI 5 mM glucose + 10% FBS, 15.4 µM | 78.9 | 79.5 | 98.6
RPMI 5 mM glucose + 10% FBS, 46.1 µM | 64.6 | 71.6 | 102
RPMI 5 mM glucose + 10% dialyzed FBS, 0.000781 µM | 114 | 124 | 110
RPMI 5 mM glucose + 10% dialyzed FBS, 0.00234 µM | 110 | 99 | 105
RPMI 5 mM glucose + 10% dialyzed FBS, 0.00702 µM | 118 | 113 | 108
RPMI 5 mM glucose + 10% dialyzed FBS, 0.0211 µM | 116 | 111 | 122
RPMI 5 mM glucose + 10% dialyzed FBS, 0.0632 µM | 108 | 122 | 111
RPMI 5 mM glucose + 10% dialyzed FBS, 0.19 µM | 109 | 116 | 110
RPMI 5 mM glucose + 10% dialyzed FBS, 0.569 µM | 96.2 | 103 | 107
RPMI 5 mM glucose + 10% dialyzed FBS, 1.71 µM | 87.5 | 110 | 106
RPMI 5 mM glucose + 10% dialyzed FBS, 5.12 µM | 66.4 | 87.3 | 125
RPMI 5 mM glucose + 10% dialyzed FBS, 15.4 µM | 72.6 | 78.3 | 122
RPMI 5 mM glucose + 10% dialyzed FBS, 46.1 µM | 48.2 | 69.8 | 106

AUC of viability dose-response curve
Settings | NOMO1 [1] | P12-Ichikawa [2] | SEM cells [3]
HPLM + 10% dialyzed FBS | 394 | 454 | 469
RPMI 5 mM glucose + 10% FBS | 439 | 433 | 469
RPMI 5 mM glucose + 10% dialyzed FBS | 399 | 438 | 466
